# Data from publication PMC5084075 (ACS Central Science, 2016).
# pIC50: −log10 of the molar value. Like-named read-outs stand apart in the source and are kept apart here.
# Columns and labels:
# in vitro [1] = experiment: in vitro; parameters: metabolic stability in mouse liver microsomes, LC-MS, NADPH, 0.4 mg/mL protein; conditions: liver microsomes, mouse liver microsomes
# Procedure: (§1) The two original GSK hits (OSM-S-5 and -6) and six NN compounds were evaluated for their kinetic solubility in phosphate buffer and their metabolic stability in human liver microsomes (Table SB5, Data Sets S20 and S21).
# in vitro [2] = experiment: in vitro; parameters: metabolic stability in human liver microsomes, LC-MS, NADPH, 0.4 mg/mL protein; conditions: liver microsomes, human liver microsomes
# Procedure: as §1
# [3] = system: Plasmodium falciparum Pfal (strain not named in column head); experiment: microbe, parasite or virus in culture; parameters: asexual blood stage P. falciparum whole-cell growth inhibition
# Procedure: To confirm the promise of the two starting points OSM-S-5 and -6, they were evaluated against 3D7 (drug-sensitive) and K1 (chloroquine resistant) strains of Plasmodium falciparum in a whole cell assay and against HEK-293 cells as a cytotoxicity marker (Table SB1, Biological Protocols; tables with the prefix “SB” may be found in the Supporting Information). Biological data may be browsed in a static data set taken as a snapshot for this paper (Data Sets S1 (Excel), S2 (SDF)), online in a database constructed through periodic batch uploads,[68] or in a “living database” to which may be added future data;[69] the latter may be visualized in a web browser[70] using an open source system that was recently deployed in the Wikipedia Chemical Structure Explorer,[71] or the data may be downloaded and visualized offline with proprietary (Figure S4)[72] or open source (Figure S5)[73] tools). The evaluation was performed in three different institutions using different assays and widely employed controls; controls are important to assess reproducibility and interassay variability[74] but also to minimize possible bias in evaluating compounds where there are pre-existing data from other researchers already in the public domain (Figure S6).[75]
# [4] = read-out: 0.4 / CLint, in vitro / (mL/min/mg protein)
# [5] = read-out: Protein Conc. (mg/mL): / Degradation half-life /
smiles,measurement,setting,value
Nc1ncnc2cc(-c3cccc(S(N)(=O)=O)c3)sc12 [OSM-S-106],microsomal CLint,in vitro [1]; [4],0.0471 mL/min/mg
same,half-life,in vitro [1]; [5],36.8 min
same,microsomal CLint,in vitro [2]; [4],< 0.007 mL/min/mg
same,half-life,in vitro [2]; [5],> 247 min
same,pIC50,[3],7.44
